Laboratory results reported in the CheMixHub viscosity set.

Assay: xn = mol fraction of the nth substance listed

O=C1CCCO1 + COC(=O)OC
viscosity [mPa·s]
Details | 293.15 K | 298.15 K | 303.15 K | 308.15 K | 313.15 K | 318.15 K | 323.15 K
101 kPa, x2 = 0.1013 | 1.635 | 1.52 | 1.413 | 1.316 | 1.231 | 1.154 | 1.083
101 kPa, x2 = 0.2013 | 1.437 | 1.331 | 1.237 | 1.154 | 1.08 | 1.013 | 0.953
101 kPa, x2 = 0.3001 | 1.277 | 1.186 | 1.104 | 1.033 | 0.968 | 0.91 | 0.857
101 kPa, x2 = 0.4006 | 1.138 | 1.058 | 0.987 | 0.923 | 0.867 | 0.816 | 0.77
101 kPa, x2 = 0.5 | 1.018 | 0.95 | 0.889 | 0.836 | 0.786 | 0.742 | 0.701
101 kPa, x2 = 0.5986 | 0.918 | 0.856 | 0.802 | 0.753 | 0.709 | 0.669 | 0.634
101 kPa, x2 = 0.6999 | 0.83 | 0.776 | 0.728 | 0.685 | 0.647 | 0.612 | 0.58
101 kPa, x2 = 0.7989 | 0.75 | 0.702 | 0.659 | 0.62 | 0.585 | 0.553 | 0.524
101 kPa, x2 = 0.8995 | 0.685 | 0.644 | 0.605 | 0.57 | 0.538 | 0.51 | 0.483
101.3 kPa, x2 = 0.1282 | – | 1.22 | – | – | – | – | –
101.3 kPa, x2 = 0.1724 | – | 1.14 | – | – | – | – | –
101.3 kPa, x2 = 0.2631 | – | 0.99 | – | – | – | – | –
101.3 kPa, x2 = 0.4545 | – | 0.85 | – | – | – | – | –
101.3 kPa, x2 = 0.5555 | – | 0.83 | – | – | – | – | –
101.3 kPa, x2 = 0.6603 | – | 0.76 | – | – | – | – | –
101.3 kPa, x2 = 0.7792 | – | 0.78 | – | – | – | – | –
101.3 kPa, x2 = 0.8823 | – | 0.67 | – | – | – | – | –

Brc1ccccc1 + COC(C)=O
viscosity [mPa·s], 101 kPa
Details | 298.15 K | 308.15 K
x2 = 0.0439 | 0.978 | 0.915
x2 = 0.1485 | 0.848 | 0.811
x2 = 0.2482 | 0.747 | 0.725
x2 = 0.3503 | 0.662 | 0.649
x2 = 0.4378 | 0.602 | 0.592
x2 = 0.4901 | 0.57 | 0.561
x2 = 0.5493 | 0.538 | 0.529
x2 = 0.6489 | 0.492 | 0.48
x2 = 0.7491 | 0.453 | 0.437
x2 = 0.8491 | 0.421 | 0.399
x2 = 0.9433 | 0.397 | 0.368

Brc1ccccc1 + COCCO
303.15 K, 101.33 kPa
Details | viscosity [mPa·s]
x2 = 0.1188 | 0.997
x2 = 0.219 | 1.024
x2 = 0.3173 | 1.06
x2 = 0.4336 | 1.114
x2 = 0.4974 | 1.147
x2 = 0.5621 | 1.179
x2 = 0.7198 | 1.255
x2 = 0.8018 | 1.296
x2 = 0.9254 | 1.352

Nc1cccc(Cl)c1Cl + COCCO
313.15 K, 101 kPa
Details | viscosity [mPa·s]
x1 = 0.08697 | 1.48
x1 = 0.1819 | 1.74
x1 = 0.2858 | 2.04
x1 = 0.4001 | 2.33
x1 = 0.5264 | 2.63
x1 = 0.6667 | 2.96
x1 = 0.8236 | 3.25

Brc1ccccc1 + COc1ccccc1
viscosity [mPa·s], 101 kPa
Details | x2 = 0.0996 | x2 = 0.1949 | x2 = 0.2927 | x2 = 0.3925 | x2 = 0.4935 | x2 = 0.5913 | x2 = 0.6919 | x2 = 0.7952 | x2 = 0.8992
298.15 K | 1.084 | 1.079 | 1.072 | 1.059 | 1.052 | 1.042 | 1.032 | 1.024 | 1.013
303.15 K | 1.017 | 1.011 | 1.005 | 0.9905 | 0.9826 | 0.9704 | 0.9621 | 0.952 | 0.9439
308.15 K | 0.957 | 0.9479 | 0.9392 | 0.9236 | 0.9158 | 0.9055 | 0.8959 | 0.8857 | 0.8768
313.15 K | 0.8974 | 0.8903 | 0.8784 | 0.8659 | 0.8558 | 0.8442 | 0.8346 | 0.8247 | 0.8135

FB(F)F + COc1ccccc1
viscosity [mPa·s], 101 kPa
Details | 293.15 K | 298.15 K | 303.15 K
x1 = 0.00791 | 1.08 | 1 | 0.93
x1 = 0.08794 | 1.18 | 1.08 | 0.99
x1 = 0.1573 | 1.27 | 1.16 | 1.06
x1 = 0.2443 | 1.62 | 1.46 | 1.35
x1 = 0.3211 | 2.23 | 2.02 | 1.81
x1 = 0.3634 | 2.66 | 2.39 | 2.13
x1 = 0.3926 | 3.04 | 2.69 | 2.4
x1 = 0.419 | 3.46 | 3.04 | 2.67
x1 = 0.4457 | 3.95 | 3.45 | 3.04
x1 = 0.4544 | 4.19 | 3.62 | 3.15
x1 = 0.4895 | 4.98 | 4.31 | 3.73

COc1ccccc1O + CS(C)=O
viscosity [mPa·s], 101 kPa
Details | x2 = 0.2 | x2 = 0.3 | x2 = 0.4 | x2 = 0.5 | x2 = 0.6 | x2 = 0.7 | x2 = 0.8 | x2 = 0.9
298.15 K | 10.62 | 12.4 | 11.9 | 9.46 | 6.91 | 4.97 | 3.59 | 2.66
308.15 K | 6.47 | 7.54 | 7.38 | 6.23 | 4.81 | 3.67 | 2.83 | 2.12
318.15 K | 4.35 | 5.01 | 4.98 | 4.4 | 3.59 | 2.8 | 2.2 | 1.75

O=C[C@H](O)[C@@H](O)[C@H](O)CO + C[N+](C)(C)CCO.[Cl-]
viscosity [mPa·s]
Details | x2 = 0.5 | x2 = 0.6 | x2 = 0.667
303 K, 101 kPa | 34000 | – | –
313 K, 101 kPa | 11900 | – | –
313.2 K, 100 kPa | 855.5 | 1450 | 3450
318.2 K, 100 kPa | 565.8 | 886.5 | 1886
323 K, 101 kPa | 4740 | – | –

CC(C)[N+](=O)[O-] + Cc1cc(C)cc(C)c1
293.15 K, 101.33 kPa
Details | viscosity [mPa·s]
x1 = 0.0955 | 0.691
x1 = 0.1983 | 0.691
x1 = 0.2294 | 0.69
x1 = 0.4005 | 0.691
x1 = 0.5048 | 0.696
x1 = 0.6007 | 0.701
x1 = 0.7022 | 0.708
x1 = 0.8014 | 0.717
x1 = 0.898 | 0.738

BrCCBr + Cc1ccc(C)cc1
101.33 kPa
Details | viscosity [mPa·s]
298.15 K, x1 = 0.1435 | 0.6686
298.15 K, x1 = 0.2783 | 0.7322
298.15 K, x1 = 0.391 | 0.7899
298.15 K, x1 = 0.4898 | 0.887
298.15 K, x1 = 0.5921 | 1.001
298.15 K, x1 = 0.6809 | 1.082
298.15 K, x1 = 0.7685 | 1.169
298.15 K, x1 = 0.8555 | 1.309
298.15 K, x1 = 0.9211 | 1.459
308.15 K, x1 = 0.1371 | 0.5822
308.15 K, x1 = 0.2566 | 0.6257
308.15 K, x1 = 0.3821 | 0.6992
308.15 K, x1 = 0.4845 | 0.7526
308.15 K, x1 = 0.5874 | 0.8292
308.15 K, x1 = 0.6798 | 0.9216
308.15 K, x1 = 0.7647 | 1.018
308.15 K, x1 = 0.8499 | 1.154
308.15 K, x1 = 0.9258 | 1.273

Brc1ccccc1 + Cc1ccc(C)cc1
101 kPa
Details | viscosity [mPa·s]
293.15 K, x1 = 0.1123 | 0.645
293.15 K, x1 = 0.225 | 0.695
293.15 K, x1 = 0.3321 | 0.746
293.15 K, x1 = 0.4327 | 0.795
293.15 K, x1 = 0.5301 | 0.845
293.15 K, x1 = 0.6412 | 0.897
293.15 K, x1 = 0.7553 | 0.95
293.15 K, x1 = 0.9107 | 1.018
298.15 K, x1 = 0.1121 | 0.61
298.15 K, x1 = 0.2263 | 0.658
298.15 K, x1 = 0.3316 | 0.701
298.15 K, x1 = 0.4646 | 0.758
298.15 K, x1 = 0.5298 | 0.785
298.15 K, x1 = 0.6418 | 0.835
298.15 K, x1 = 0.755 | 0.895
298.15 K, x1 = 0.9101 | 0.955
303.15 K, x1 = 0.1154 | 0.575
303.15 K, x1 = 0.22 | 0.615
303.15 K, x1 = 0.3355 | 0.657
303.15 K, x1 = 0.4366 | 0.7
303.15 K, x1 = 0.5593 | 0.75
303.15 K, x1 = 0.6816 | 0.799
303.15 K, x1 = 0.7723 | 0.835
303.15 K, x1 = 0.9149 | 0.891

C1=C[C@H]2[C@@H](C1)[C@H]1C=C[C@@H]2C1 + Cc1ccc(C)cc1
viscosity [mPa·s], 101.2 kPa
Details | x1 = 0.1024 | x1 = 0.1971 | x1 = 0.3006 | x1 = 0.3993 | x1 = 0.4999 | x1 = 0.6007 | x1 = 0.7014 | x1 = 0.8001 | x1 = 0.8993
293.15 K | 0.7661 | 0.8509 | 0.9724 | 1.127 | 1.347 | 1.626 | 2.014 | 2.625 | 3.5
298.15 K | 0.7144 | 0.7986 | 0.9075 | 1.04 | 1.229 | 1.483 | 1.85 | 2.402 | 3.126
303.15 K | 0.6724 | 0.7508 | 0.8496 | 0.9666 | 1.141 | 1.367 | 1.693 | 2.174 | 2.81
308.15 K | 0.6225 | 0.7021 | 0.7934 | 0.9051 | 1.066 | 1.279 | 1.58 | 1.995 | 2.529
313.15 K | 0.5997 | 0.6653 | 0.7493 | 0.8554 | 1.001 | 1.19 | 1.457 | 1.826 | 2.271
318.15 K | 0.5879 | 0.6586 | 0.7357 | 0.8296 | 0.9662 | 1.138 | 1.371 | 1.689 | 2.104

CC(C)[N+](=O)[O-] + Cc1ccc(C)cc1
293.15 K, 101.33 kPa
Details | viscosity [mPa·s]
x1 = 0.1052 | 0.64
x1 = 0.2079 | 0.636
x1 = 0.2945 | 0.638
x1 = 0.3973 | 0.644
x1 = 0.4976 | 0.651
x1 = 0.6039 | 0.664
x1 = 0.7089 | 0.678
x1 = 0.8008 | 0.699
x1 = 0.8925 | 0.727
